According to patent US12037344B2, “NLRP3 modulators” (INNATE TUMOR IMMUNITY, INC., priority 2018, dated 2024):
Like-named read-outs stand apart in the source and are kept apart here.

Tests used:
[1] = biological target: T1, TLR7 (Homo sapiens, UniProt Q9NYK1); assay: In vitro human TLR7 binding reporter assay (HEK-Blue, NF-kB/AP1-inducible SEAP); type: cell-based; conditions: read-out: TLR7 Agonist EC50
T1 construct: human HEK-Blue cells co-expressing a TLR7 or TLR8 gene
T1 sequence (Q9NYK1 27-1049): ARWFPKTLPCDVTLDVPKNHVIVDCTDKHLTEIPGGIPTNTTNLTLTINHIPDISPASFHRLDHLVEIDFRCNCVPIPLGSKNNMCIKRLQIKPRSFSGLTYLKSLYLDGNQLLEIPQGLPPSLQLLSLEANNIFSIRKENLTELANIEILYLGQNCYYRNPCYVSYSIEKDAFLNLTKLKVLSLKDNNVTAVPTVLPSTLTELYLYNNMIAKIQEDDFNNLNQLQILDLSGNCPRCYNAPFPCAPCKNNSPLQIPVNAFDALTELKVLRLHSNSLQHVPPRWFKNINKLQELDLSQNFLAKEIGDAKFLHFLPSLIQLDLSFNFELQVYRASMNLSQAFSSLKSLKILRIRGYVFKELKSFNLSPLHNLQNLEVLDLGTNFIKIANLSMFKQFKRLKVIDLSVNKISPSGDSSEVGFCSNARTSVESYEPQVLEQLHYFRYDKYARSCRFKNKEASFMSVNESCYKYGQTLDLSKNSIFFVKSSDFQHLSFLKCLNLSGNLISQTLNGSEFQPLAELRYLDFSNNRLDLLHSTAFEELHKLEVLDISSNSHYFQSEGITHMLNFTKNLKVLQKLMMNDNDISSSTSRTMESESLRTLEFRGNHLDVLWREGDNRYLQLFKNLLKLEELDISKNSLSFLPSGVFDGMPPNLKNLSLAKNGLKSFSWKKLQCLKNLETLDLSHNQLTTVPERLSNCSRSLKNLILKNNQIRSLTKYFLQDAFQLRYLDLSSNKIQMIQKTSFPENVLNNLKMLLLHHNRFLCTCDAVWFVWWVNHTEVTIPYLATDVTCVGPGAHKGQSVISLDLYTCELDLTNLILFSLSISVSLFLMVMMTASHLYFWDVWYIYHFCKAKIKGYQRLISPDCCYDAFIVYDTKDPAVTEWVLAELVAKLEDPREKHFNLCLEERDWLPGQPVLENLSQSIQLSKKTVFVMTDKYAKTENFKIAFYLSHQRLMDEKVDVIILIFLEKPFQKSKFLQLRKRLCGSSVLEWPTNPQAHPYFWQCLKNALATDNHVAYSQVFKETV
Summary of the method: (§1)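 HEK-Blue cells expressing human TLR7 or TLR8 with NF-kB/AP1-inducible SEAP reporter, plated 24 h, then compound-treated 18 h at 37° C, 5% CO2. EC50 normalized to 100% Ymax set by 50 μM reference standard.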

[2] = tested on: THP-1 cells; assay: Measurement of IL-1β production, hTRF protocol (second alternative procedure), THP-1 cells; type: cell-based, human; conditions: read-out: NLRP3 hILIB EC50
Summary of the method: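 THP-1 cells differentiated overnight with 50 ng/ml PMA, then plated at 50,000 cells/well in RPMI with 2% FBS onto serial compound dilutions (top final concentration 10 μM) for 2 hours at 37° C. Supernatant IL-1β measured by hTRF (antibodies at 1:40, overnight at 4° C), read at 665/615 nm against a standard curve.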

[3] = biological target: T2, TLR8 (Homo sapiens, UniProt Q9NR97); assay: In vitro human TLR8 binding reporter assay (HEK-Blue, NF-kB/AP1-inducible SEAP); type: cell-based; conditions: read-out: TLR8 Agonist EC50
T2 construct: human HEK-Blue cells co-expressing a TLR7 or TLR8 gene
T2 sequence (Q9NR97 27-1041): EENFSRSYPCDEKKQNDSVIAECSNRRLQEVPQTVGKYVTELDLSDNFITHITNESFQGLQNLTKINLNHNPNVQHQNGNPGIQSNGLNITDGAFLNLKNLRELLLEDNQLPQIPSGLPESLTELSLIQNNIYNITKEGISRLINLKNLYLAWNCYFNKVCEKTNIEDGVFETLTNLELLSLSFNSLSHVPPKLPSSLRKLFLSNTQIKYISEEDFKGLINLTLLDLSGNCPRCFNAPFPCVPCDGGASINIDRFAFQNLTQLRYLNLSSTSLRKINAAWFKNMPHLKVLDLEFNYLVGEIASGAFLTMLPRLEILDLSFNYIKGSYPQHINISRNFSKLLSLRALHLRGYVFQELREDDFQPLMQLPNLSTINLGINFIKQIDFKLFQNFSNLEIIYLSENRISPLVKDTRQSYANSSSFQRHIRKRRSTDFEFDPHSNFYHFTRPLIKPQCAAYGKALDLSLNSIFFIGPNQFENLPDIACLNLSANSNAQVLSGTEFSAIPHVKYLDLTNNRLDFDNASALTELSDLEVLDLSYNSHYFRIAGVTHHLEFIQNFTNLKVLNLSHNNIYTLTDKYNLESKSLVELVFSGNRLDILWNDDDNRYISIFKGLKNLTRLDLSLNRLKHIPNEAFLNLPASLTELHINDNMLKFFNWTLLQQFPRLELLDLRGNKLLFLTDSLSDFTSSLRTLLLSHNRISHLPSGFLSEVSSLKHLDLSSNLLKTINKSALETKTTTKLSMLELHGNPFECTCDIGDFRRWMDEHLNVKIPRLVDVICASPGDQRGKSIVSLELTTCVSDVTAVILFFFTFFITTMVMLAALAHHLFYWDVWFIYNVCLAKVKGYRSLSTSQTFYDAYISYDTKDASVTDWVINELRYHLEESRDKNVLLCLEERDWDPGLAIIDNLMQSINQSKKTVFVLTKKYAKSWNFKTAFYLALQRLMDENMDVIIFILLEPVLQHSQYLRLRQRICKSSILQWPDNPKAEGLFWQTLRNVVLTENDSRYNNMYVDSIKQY
Summary of the method: as §1

[4] = Homo sapiens, THP-1, IL-1β production, human
[5] = Homo sapiens, THP-1, IL-1β production, human cells

| Structure (SMILES) | EC50 ([1]; activity range class) | EC50 [2, 4] | EC50 ([3]; activity range class) | EC50 ([1]; activity range) | EC50 [2, 5] | EC50 ([3]; activity range) | EC50 ([2]; IL-1β production, human) |
| --- | --- | --- | --- | --- | --- | --- | --- |
| Nc1nc2cc(-c3cc[nH]n3)ccc2c2cn(CCNC(=O)c3ccncn3)nc12 [Example 75] | > 100 µM | 0.64 µM | > 100 µM | – | – | – | – |
| COCCNC(=O)C(C)n1cc2c(N)nc3cc(-c4ccn[nH]4)ccc3c2n1 (stereo not drawn) [Example 581] | – | – | – | > 100 µM | 3.17 µM | > 100 µM | – |
| CC(C)NC(=O)Cn1cc2c(n1)c(N)nc1cc(-c3cc[nH]n3)ccc12 [Example 534] | – | – | – | > 100 µM | 0.71 µM | > 100 µM | – |
| Nc1nc2cc(-c3cc[nH]n3)ccc2c2nn(Cc3cscn3)cc12 [Example 362] | > 100 µM | 0.07 µM | > 100 µM | – | – | – | – |
| COCCNC(=O)Cn1cc2c(n1)c(N)nc1cc(-c3cc[nH]n3)ccc12 [Example 536] | – | – | – | > 100 µM | 3.58 µM | > 100 µM | – |
| Nc1nc2cc(-c3cc[nH]n3)ccc2c2nn(C[C@H]3CCC(=O)N3)cc12 [Example 385] | > 100 µM | 2.51 µM | > 100 µM | – | – | – | – |
| CC(C(=O)N1CC(F)(F)C1)n1cc2c(N)nc3cc(-c4ccn[nH]4)ccc3c2n1 (stereo not drawn) [Example 577] | – | – | – | > 100 µM | 2.32 µM | > 100 µM | – |
| Nc1nc2cc(-n3cccn3)ccc2c2[nH]c(CCCO)cc12 [Example 446] | – | – | – | > 100 µM | 0.2 µM | > 100 µM | – |
| CC(C(=O)N1CCC1)n1cc2c(N)nc3cc(-c4ccn[nH]4)ccc3c2n1 (stereo not drawn) [Example 576] | – | – | – | > 100 µM | 1.61 µM | > 100 µM | – |
| Nc1nc2cc(-c3cc[nH]n3)ccc2c2cn(CCNC(=O)c3cccc(C(F)(F)F)n3)nc12 [Example 90] | 20 to 100 µM | 0.08 µM | 20 to 100 µM | – | – | – | – |
| Nc1nc2cc(-c3cc[nH]n3)ccc2c2cn(CCNC(=O)c3ccccn3)nc12 [Example 39] | > 100 µM | 0.25 µM | 20 to 100 µM | – | – | – | – |
| Nc1nc2cc(-c3cc[nH]n3)ccc2c2cn(CCNC(=O)c3csc(Cl)n3)nc12 [Example 88] | 20 to 100 µM | 0.13 µM | 20 to 100 µM | – | – | – | – |
| CCCn1cc2c(n1)c(N)nc1cc(-c3ccn[nH]3)ccc12 [Example 187] | > 100 µM | 0.22 µM | > 100 µM | – | – | – | – |
| Nc1nc2cc(-c3cc[nH]n3)ccc2c2cn(CCCOc3cccc(F)c3)nc12 [Example 5] | > 100 µM | 0.35 µM | > 100 µM | – | – | – | – |
| Cc1nc(C(=O)NCCn2cc3c(n2)c(N)nc2cc(-c4cc[nH]n4)ccc23)co1 [Example 76] | > 100 µM | 0.33 µM | > 100 µM | – | – | – | – |
| CO[C@@H](CO)Cn1cc2c(n1)c(N)nc1cc(-c3cc[nH]n3)ccc12 [Example 459] | – | – | – | > 100 µM | 0.27 µM | > 100 µM | – |
| COCCCCn1cc2c(N)nc3cc(-c4cc[nH]n4)ccc3c2n1 [Example 218] | > 100 µM | 0.2 µM | > 100 µM | – | – | – | – |
| Nc1nc2cc(-c3cc[nH]n3)ccc2c2nn(CC3CCCO3)cc12 (stereo not drawn) [Example 229] | > 100 µM | 0.08 µM | > 100 µM | – | – | – | – |
| Nc1nc2cc(-c3cc[nH]n3)ccc2c2nn([C@H]3CC[C@@H](O)CC3)cc12 [Example 394] | > 100 µM | 0.46 µM | > 100 µM | – | – | – | – |
| Nc1nc2cc(-c3cc[nH]n3)ccc2c2cn(CC(=O)NCC3CCOCC3)nc12 [Example 550] | – | – | – | > 100 µM | 5.01 µM | > 100 µM | – |
| COCCn1cc2c(N)nc3cc(-n4cccn4)ccc3c2n1 [Example 247, 2-(2-methoxyethyl)-7-(1H-pyrazol-1-yl)-2H-pyrazolo[4,3-c]quinolin-4-amine] | > 100 µM | 0.44 µM | > 100 µM | – | – | – | – |
| CS(=O)(=O)NCCc1cc2c(N)nc3cc(-c4cc[nH]n4)ccc3c2[nH]1 [Example 481] | – | – | – | > 100 µM | 0.38 µM | > 100 µM | – |
| Nc1nc2cc(-c3ccn[nH]3)ccc2c2[nH]c(CCCO)cc12 [Example 440] | – | – | – | > 100 µM | 0.13 µM | > 100 µM | – |
| Nc1nc2cc(-c3cc[nH]n3)ccc2c2nn(Cc3cc(CO)no3)cc12 [Example 408] | – | – | – | > 100 µM | 1.94 µM | > 100 µM | – |
| Nc1nc2cc(-c3ccn[nH]3)ccc2c2nn(CCNC(=O)c3csc(Cl)n3)nc12 [Example 158] | > 100 µM | 0.97 µM | 20 to 100 µM | – | – | – | – |
| Nc1nc2cc(-c3cc[nH]n3)ccc2c2nn(C3CCOC3)cc12 (single isomer, unassigned) [Example 238] | > 100 µM | – | > 100 µM | – | – | – | 0.72 µM |
| CS(=O)(=O)CCn1cc2c(N)nc3cc(-c4cc[nH]n4)ccc3c2n1 [Example 463] | – | – | – | > 100 µM | 0.13 µM | > 100 µM | – |
| NC(=O)CCCn1cc2c(N)nc3cc(-c4cc[nH]n4)ccc3c2n1 [Example 502] | – | – | – | > 100 µM | 1.68 µM | > 100 µM | – |
| CS(=O)(=O)NCCCn1cc2c(N)nc3cc(-c4ccn[nH]4)ccc3c2n1 [Example 586] | – | – | – | > 100 µM | 2.18 µM | > 100 µM | – |
